Assay in all cases: NCI-60 cell line screen, 48 h
For assay [1], the system named is U251 CNS.
Assay [2] has as its system NCI-H460 lung.
In assay [3] the test system is PC-3 prostate.
Assay [4] relates to SW-620 colon.
The subject of assay [5] is SK-MEL-2 melanoma.
The test system of assay [6] is HL-60(TB) leukemia.
For assay [7], the system named is SK-MEL-5 melanoma.
For assay [8], the system named is BT-549 breast.
Assay [9] concerns MOLT-4 leukemia.
For assay [10], the system named is HCC-2998 colon.

Values joined by “and” are separate entries in the source; they are usually repeats but may differ in a detail not shown here. Equal entries are not always repeated.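 All cell lines were grown in 96-well plates and treated with compound for 48 hours. GI50: concentration for 50% inhibition of growth. The concentration for full growth arrest is given as TGI.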

Consider `CCN(CC)c1ccc(C(O)C2=CC(=O)c3ccccc3C2=O)cc1` (stereo not given), for which the GI50 in assay [1] is 1.32 µM; in assay [2], 10.8 µM; in assay [3], 0.156 µM; in assay [4] it was 0.802 µM; in [5], 1.57 µM; in assay [6] it was 7.1 µM. Besides, the GI50 in assay [7] was 0.914 µM; in [8] it was 3.07 µM; in [9] it was 0.44 µM; in assay [10], 1.92 µM. The TGI was 7.34 µM in assay [1]; greater than 32.4 µM in assay [2]; 0.959 µM in [3]; greater than 100 µM in assay [4]; 3.71 µM in assay [5]; greater than 100 µM in assay [6]. Also, the TGI in [7] is 2.88 µM; in assay [8] it was 8.22 µM; in [9] it was greater than 100 µM; in [10], 3.43 µM.
For `CS(=O)(=O)CCc1cccc(C(=O)c2cnn(-c3ccc(F)cc3)c2N)c1`, the GI50 was greater than 25 µM in assay [1]; greater than 25 µM in assay [2]; greater than 25 µM in assay [3]; greater than 25 µM in assay [4]; greater than 25 µM in [5]; greater than 9.84 µM in [6]. The GI50 in [7] was greater than 25 µM; in assay [8], greater than 25 µM; in [9], greater than 18 µM; in [10], greater than 25 µM. For the same compound, the TGI in assay [1] was greater than 25 µM; in assay [2], greater than 25 µM; in assay [3] it was greater than 25 µM; in [4], greater than 25 µM; in assay [5], greater than 25 µM; in [6], greater than 23.8 µM. For the same compound, the TGI in assay [7], in [8], in assay [9] and in assay [10] was greater than 25 µM throughout.
For `Cc1cc(Cc2cc(C)c(NC(=O)C(=O)C3CCC4=C(SC5C=CC=CC5N4)C3=O)c(C(C)C)c2)cc(C(C)C)c1NC(=O)C(=O)C1CCC2=C(SC3C=CC=CC3N2)C1=O` (stereo not given), the TGI in assay [1] is greater than 100 µM; in assay [2] it was greater than 100 µM; in assay [3], 90.9 µM; in [4] it was greater than 100 µM; in assay [5] it was greater than 100 µM; in assay [6] it was greater than 100 µM. Moreover, the TGI in assay [7], in assay [8], in assay [9] and in [10] was greater than 100 µM each time.
With `CC1CCCC(C(O)CC2CC(=O)NC(=O)C2)C1O` (stereo not given), the TGI in assay [1], in assay [2], in assay [3], in assay [4], in [5] and in [6] was greater than 100 µM throughout. The TGI in [7], in assay [8], in assay [9] and in assay [10] was greater than 100 µM each time.
As for `c1ccc(CN2COc3c(ccc4c3OCN(Cc3ccccc3)C4)C2)cc1`, the GI50 was 0.382 µM in assay [1]; 0.399 µM in assay [2]; 0.579 µM in assay [3]; 0.494 µM in [4]; 3.98 µM in assay [5]; 2.33 µM in [6]. In addition, the GI50 in assay [7] was 0.501 µM; in assay [8], 2.92 µM; in assay [9], 0.409 µM; in assay [10], 1.21 µM. Besides, the TGI was greater than 100 µM in assay [1]; greater than 100 µM in [2]; greater than 100 µM in assay [3]; greater than 100 µM in assay [4]; greater than 100 µM in assay [5]; 7.52 µM in [6]. Also, the TGI in assay [7] is 2.04 µM; in [8], greater than 100 µM; in [9] it was greater than 100 µM; in assay [10], greater than 100 µM.
Regarding `COc1cc(NCCCN=C(N)NC(N)=NC(C)C)c2ncccc2c1`, the GI50 in assay [1] was 6.41 µM; in assay [2], 14.6 µM; in assay [3] it was 6 µM; in [4] it was 11.6 µM; in assay [5] it was 2.68 µM; in [6] it was 10.8 µM. Besides, the GI50 in [7] is 2.17 µM; in [8], 10 µM; in [9] it was 6.62 µM; in assay [10] it was 3.29 µM. The TGI is greater than 45.1 µM in [1]; greater than 79.5 µM in assay [2]; 35.5 µM in [3]; greater than 63.5 µM in [4]; 10.1 µM in assay [5]; 31.8 µM in [6]. Moreover, the TGI in assay [7] was 6.38 µM; in assay [8], 22.8 µM; in assay [9], greater than 47.5 µM; in [10], 22.1 µM.
On to `C=CC(=O)Nc1cc(C)ccc1Nc1nc(Nc2cc(OC)ncc2C)ncc1C(F)(F)F`, for which the GI50 was 0.758 µM in assay [1]; 2.13 µM in assay [2]; 2.18 µM in assay [3]; 0.322 µM in assay [4]; 0.313 µM in assay [5]; 0.637 µM in assay [6]. The GI50 in assay [7] is 1.77 µM; in [8] it was 0.585 µM; in assay [9], 3.55 µM; in assay [10] it was 0.261 µM. In addition, the TGI is greater than 100 µM in assay [1]; 11.4 µM in [2]; greater than 100 µM in assay [3]; 3.23 µM in assay [4]; 1.85 µM in assay [5]; 3.7 µM in assay [6]. The TGI in assay [7] was 5.42 µM; in assay [8], 6.07 µM; in assay [9], greater than 100 µM; in assay [10], 4.34 µM.
Turning to `O=C(O)C1(C(=O)O)CCC1.[NH2-].[NH2-].[Pt+2]`, the GI50 in assay [1] was 67.2 µM and 162 µM; in assay [2], 37.5 µM; in assay [3], greater than 250 µM; in assay [4] it was 162 µM and > 250 µM; in assay [5], 161 µM and > 250 µM; in assay [6], 29.5 µM and 12.7 µM. In addition, the GI50 in [7] is 109 µM and > 194 µM; in [8], 97.5 µM and 200 µM; in assay [9] it was 86.4 µM and 28 µM; in assay [10] it was 209 µM and > 250 µM. In addition, the TGI in assay [1] was 183 µM and > 250 µM; in [2], 206 µM; in assay [3], greater than 250 µM; in [4], greater than 250 µM; in [5], 244 µM and > 250 µM; in [6], 201 µM and 191 µM. Further, the TGI is 218 µM and > 250 µM in assay [7]; greater than 250 µM in assay [8]; greater than 237 µM in assay [9]; greater than 250 µM in assay [10].

These data come from PubChem BioAssay (NCI).
